Experimental data as given in patent publication US11918693B2, “Ibuprofen and acetaminophen tablet” (GlaxoSmithKline Consumer Healthcare Holdings (US) LLC, priority 2019, dated 2024).

Test system: pyrexia induced by intravenous reference standard endotoxin (RSE) in healthy males
Type: in vivo, human
Conditions: for WSTD0-2 h, Treatment difference vs. Placebo / WSTD0-4 h, Treatment difference vs. Placebo / WSTD0-6 h, Treatment difference vs. Placebo / WSTD0-8 h, Treatment difference vs. Placebo / WSTD6-8 h, Treatment difference vs. Placebo / WSTD50-110 min, Treatment difference vs. Placebo / WSTD80-110 min, Treatment difference vs. Placebo / Period post dose in which subjects' temperatures were significantly reduced relative to placebo / Headache due to RSE, subjects / Nausea due to RSE, subjects / Pyrexia, AE considered related to RSE, subjects: APAP 500 mg; for WSTD50-110 min, LSM / WSTD50-110 min, Mean / WSTD80-110 min, LSM / WSTD80-110 min, Mean: post hoc analysis; for WSTD50-110 min, LSM / WSTD50-110 min, Mean / WSTD80-110 min, LSM / WSTD80-110 min, Mean / WSTD0-2 h, Mean (SD) / WSTD0-4 h, Mean (SD) / WSTD0-6 h, Mean (SD) / WSTD6-8 h, Mean (SD) / WSTD0-8 h, Mean (SD): IBU dose 250 mg, APAP dose 500 mg; for Period post dose in which subjects' temperatures were significantly reduced relative to placebo / WSTD0-2 h, Mean (SD) / WSTD0-4 h, Mean (SD) / WSTD0-6 h, Mean (SD) / WSTD6-8 h, Mean (SD) / WSTD0-8 h, Mean (SD): single oral dose; for WSTD0-8 h, Mean (SD): primary efficacy endpoint; for Headache due to RSE, subjects / Nausea due to RSE, subjects / Pyrexia, AE considered related to RSE, subjects: study drug treatment period
Method: This study evaluated the antipyretic efficacy, onset of effect and tolerability of a single dose of FDC IBU/APAP 250 mg/500 mg compared with placebo and each monocomponent at the same dose.
This was a single-center, randomized, double-blind, placebo-controlled, full-factorial study in healthy males aged 18-55 years in whom pyrexia was induced by intravenous administration of a reference standard endotoxin (RSE). After RSE administration and attainment of an oral temperature ≥100.5° F. (38.1° C.), subjects were randomized 3:3:3:1 to receive a single oral dose of FDC IBU/APAP 250 mg/500 mg, APAP 500 mg, IBU 250 mg, or placebo in double-blind fashion. Oral temperature was subsequently measured every 10 minutes for the first 2 hours and then every 30 minutes until 8 hours post dose. Time-weighted sum of temperature differences from baseline to 8 hours (WSTD0-8) after study medication administration was the primary efficacy endpoint. Secondary endpoints included WSTD scores from 0-2, 0-4, 0-6, and 6-8 hours; time to return to “normal” temperature; time to rescue medication use; global drug evaluation. Safety was monitored and assessed via adverse events (AEs).
This was a single-center, randomized, double-blind, placebo-controlled, full-factorial single-dose study in subjects in whom pyrexia was induced by intravenous (IV) administration of a reference standard endotoxin (RSE). In this standardized model, fever was induced by endotoxin (gram-negative bacterial lipopolysaccharide) derived from Escherichia coli O113, which was developed as a national biological reference standard in 1976 by the National Institute of Allergy and Infectious Diseases and the US Food and Drug Administration. The RSE used in this study was supplied by List Biological Laboratories, Inc. (Campbell, CA, USA).
Subject eligibility was determined at a screening visit within 28 days prior to study drug treatment; eligible subjects were assigned sequential subject numbers by the investigator. Subjects were healthy males aged 18-55 years, inclusive, with a normal, stable body temperature at screening and day 0, body mass index of 17.5-37.0 kg/m^2, and total body weight ≥50 kg at screening, demonstrably adequate veins for IV catheter insertion, and who were willing and able to comply with all study procedures. […] Female subjects were not enrolled due to potential teratogenicity concerns associated with the use of the RSE.
Subjects entered the study center on day 0 to confirm eligibility, i.e., afebrile state, defined as a mean oral temperature 97.4° F. to 98.8° F. not varying by more than 0.4° F. on 3 repeated measures over 30 minutes and still meeting inclusion/exclusion criteria. Subjects who remained eligible for the study remained in-house until after completion of all study procedures.
Subjects received prophylactic ondansetron, 8 mg intravenously, approximately 30 minutes prior to administration of the RSE to reduce the likelihood of nausea and vomiting. Prior to RSE administration, changes to prior treatments were recorded; blood pressure and HR were measured; and a 12-lead ECG was obtained. Oral temperatures were recorded, with “normal” for each subject being the temperature recorded immediately prior to RSE administration.
Subject eligibility Subject assessments included physical examination, vital sign measurement, ECG evaluation, and laboratory studies (hematology, serum chemistry, urinalysis). The baseline oral temperature was defined as the temperature reading obtained immediately prior to administration of study medication, after the subject had reached an RSE-induced oral temperature ≥100.5° F. (38.1° C.) that was required for randomization. After randomization and study medication administration, oral temperature was measured using a standardized electronic digital thermometer every 10 minutes for the first 2 hours, and then every 30 minutes until 8 hours post dose. Subjects were assessed for emergence of AEs at each temperature evaluation time point. […]

[1] = first minus second treatment, IBU 250 mg

For `CC(C)Cc1ccc(C(C)C(=O)O)cc1` (stereo not shown) [IBU, 2-(4-isobutylphenyl) propionic acid], the “Subjects who took rescue medication” value (8-hour treatment period, IBU 250 mg) was 1 subject, the “Global Evaluation of study medication as a fever reducer, in words” value (ANCOVA analysis, 6-point scale, P<0.05) was “rated their treatment significantly higher than those in the placebo group” and the “WSTD0-2 h, Treatment difference vs. APAP 500 mg” value [1] was −0.09. For the same compound, the “WSTD0-4 h, Treatment difference vs. APAP 500 mg” value [1] was −0.16, the “WSTD0-6 h, Treatment difference vs. APAP 500 mg” value [1] was −0.09 and the “WSTD0-8 h, Treatment difference vs. APAP 500 mg” value [1] was −0.12. The “WSTD6-8 h, Treatment difference vs. APAP 500 mg” value [1] was −0.01, the “WSTD0-2 h, Treatment difference vs. Placebo” value [1] was 0.51 and the “WSTD0-4 h, Treatment difference vs. Placebo” value [1] was 1.26. For the same compound, the “WSTD0-6 h, Treatment difference vs. Placebo” value [1] was 1.83, the “WSTD0-8 h, Treatment difference vs. Placebo” value [1] was 2.23 and the “WSTD6-8 h, Treatment difference vs. Placebo” value [1] was 0.51. The “WSTD50-110 min, LSM” value was 0.103, the “WSTD50-110 min, Mean” value was −0.02 and the “WSTD80-110 min, LSM” value was 0.190. The “WSTD80-110 min, Mean” value was 0.13, the “WSTD50-110 min, Treatment difference vs. APAP 500 mg” value (post hoc, IBU 250 mg) was −0.032 and the “WSTD80-110 min, Treatment difference vs. APAP 500 mg” value (post hoc, IBU 250 mg) was −0.002. For the same compound, the “WSTD50-110 min, Treatment difference vs. Placebo” value (post hoc, IBU 250 mg) was 0.374, the “WSTD80-110 min, Treatment difference vs. Placebo” value (post hoc, IBU 250 mg) was 0.251 and the “Period post dose in which subjects' temperatures were significantly reduced relative to placebo” value (IBU 250 mg) was 100 to 180 min. For the same compound, the “WSTD0-2 h, Mean (SD)” value was −0.19 (1.86), the “WSTD0-4 h, Mean (SD)” value was 2.61 (3.34) and the “WSTD0-6 h, Mean (SD)” value was 6.65 (4.79). The “WSTD6-8 h, Mean (SD)” value was 5.49 (2.26), the “WSTD0-8 h, Mean (SD)” value was 11.09 (6.35) and the “Headache due to RSE, subjects” value (IBU 250 mg) was 14.9%. The “Nausea due to RSE, subjects” value (IBU 250 mg) was 12.6% and the “Pyrexia, AE considered related to RSE, subjects” value (IBU 250 mg) was 41.4%.

`CC(=O)Nc1ccc(O)cc1` [APAP, N-(4-hydroxyphenyl)acetamide] was tested, and the “WSTD0-2 h, Treatment difference vs. Placebo” value [1] was 0.60, the “WSTD0-4 h, Treatment difference vs. Placebo” value [1] was 1.42 and the “WSTD0-6 h, Treatment difference vs. Placebo” value [1] was 1.92. The “WSTD0-8 h, Treatment difference vs. Placebo” value [1] was 2.35, the “WSTD6-8 h, Treatment difference vs. Placebo” value [1] was 0.53 and the “WSTD50-110 min, LSM” value was 0.135. The “WSTD50-110 min, Mean” value was 0.19, the “WSTD80-110 min, LSM” value was 0.192 and the “WSTD80-110 min, Mean” value was 0.23. The “WSTD50-110 min, Treatment difference vs. Placebo” value (post hoc, IBU 250 mg) was 0.406, the “WSTD80-110 min, Treatment difference vs. Placebo” value (post hoc, IBU 250 mg) was 0.253 and the “Period post dose in which subjects' temperatures were significantly reduced relative to placebo” value (IBU 250 mg) was 100 to 270 min. For the same compound, the “WSTD0-2 h, Mean (SD)” value was 0.21 (1.73), the “WSTD0-4 h, Mean (SD)” value was 3.41 (3.17) and the “WSTD0-6 h, Mean (SD)” value was 7.65 (4.60). For the same compound, the “WSTD6-8 h, Mean (SD)” value was 5.84 (2.33), the “WSTD0-8 h, Mean (SD)” value was 12.39 (6.28) and the “Headache due to RSE, subjects” value (IBU 250 mg) was 5.7%. The “Nausea due to RSE, subjects” value (IBU 250 mg) was 9.2% and the “Pyrexia, AE considered related to RSE, subjects” value (IBU 250 mg) was 29.9%.
